How the values were obtained:
Assay type in all cases: physicochemical
[1] = UV–VIS spectra of E/Z isomers in DMSO; details: for Δ λmax n→π*: between E and Z isomers
Method: For this purpose, the UV–VIS spectra were measured for all synthesized hybrids (17a–17l) at concentrations from 20 to 500 µM in dimethyl sulfoxide (DMSO) in light at λ 505 nm and for (17a–17c), (17e–17g), and (17i–17l) at λ 525 nm, respectively, as detailed in Table 1 (see Section S4.4 in Supplementary Materials).

[2] = Solubility in DMSO
[3] = Changes over time of Z to E transition by 19F NMR; details: light 525 nm, 100 mM in DMSO
Description: We can observe that for electromagnetic radiation in the range of wavelengths 390 nm to 610 nm, transitions from E to Z of about 0–76% are obtained. The best results for all compounds are in visible wavelengths 505 nm or 525 nm (30.59–75.44%). From analyzing Figure 2 we can draw the following conclusions: all synthesized compounds undergo switching under visible light (this is important because UV radiation can damage the DNA of cells, inhibiting replication and, as a result, preventing cell division). For the 2,6-difluoro substituents (17i), (17j), (17k), and (17l) with values of 74.84%, 73.2%, 74.39%, and 75.44%, respectively, the largest share of the Z configuration is at (525 nm) and, for the rest of (17a), (17b), (17c), (17e), (17f), and (17g), it is in range of 30.57–47.13% at 505 nm. […] Multiple cycles of photoreversible switching under alternating green and blue light irradiation, with no significant photobleaching or degradation, confirmed the repeatable and robust photochromic conversion of the synthesized azobenzenes (Figure 2b). Then we measured changes over time (transitions from Z to E, upon irradiation with 505 nm for (17a–17c) and (17e–17g), and 525 nm for (17i–17l) compounds (Figure 3, and see Section S4.3 in Supplementary Materials).

[4] = Photostationary state (PSS) composition by 19F NMR; details: irradiation 525 nm, DMSO-d6
Description: Azo compounds have been applied in various fields due to their ability to undergo structural changes, with one of the most interesting applications being the direct conversion of light into mechanical energy. However, azobenzenes generally face two main limitations that hinder their practical use in biological and materials sciences. The first is the need for UV light to induce the E→Z isomerization through π→π* excitation, which can potentially interfere with and damage the surrounding environment. The second limitation is the typically incomplete reverse Z→E photoisomerization, which is induced by irradiation in the visible region. In this region, the n→π* bands of the E and Z isomers largely overlap, making it difficult to achieve E-rich photostationary states (PSSs) after back-switching. These limitations can be overcome by modifying azobenzene in such a way that the n→π* bands of the E and Z isomers are sufficiently separated. If the separation is large enough, the two n→π* bands can be distinct, allowing visible light to selectively isomerize both isomers with high to complete E/Z photoconversions. We are looking for switches that operate within the visible light range of 380–750 nm, which is harmless. Fluorine-substituted azobenzenes are well-suited for designing visible-light-responsive systems, offering stable and bidirectional photoconversions along with tissue-compatible properties. We confirmed that the compounds we synthesized successfully dock with tubulin. In the next step, we tested whether the added azo compound would meet our expectations as a visible light switch. For this purpose, we used NMR spectroscopy. We measured ^19F spectra of (17a–17c, 17e–17g, and 17i–17l) at nine wavelengths from 390 nm to 610 nm to check which wavelengths produce the most Z isomer after exposure (see Section S4.2 in Supplementary Materials). We selected DMSO as the solvent due to its ability to dissolve both polar and nonpolar molecules, which is essential for the analytical methods employed in this study. Its intermediate polarity also makes it a good surrogate for both organic and aqueous solvents. Additionally, DMSO is commonly used for preparing stock solutions, which are then illuminated and diluted into aqueous systems for assessing biological activity. […]
Figure 2 (a) Photostationary state (PSS) compositions for chalcones (17a–17c, 17e–17g, and 17i–17l) determined by ^19F NMR analysis (c ≈ 100 mM in DMSO-d6), presented in a bar chart; (b) representative multiple photoswitching rounds of 60 µM of (17j) in DMSO by pulsed green (525 nm) and blue (430 nm) light illumination. The photochemical stability of the drug is analyzed via repeated cycles of irradiation (software: Microsoft Excel).

εmax (n→π*) ([1]; E isomer) | λmax n→π* (E) ([1]; E isomer) | εmax (n→π*) ([1]; Z isomer) | λmax n→π* (Z) ([1]; Z isomer) | Δ λmax n→π* [1] | solubility in DMSO [2] | Z isomer, changes over time ([3]; 0 h) | Z isomer, changes over time ([3]; 1 h) | Z isomer, changes over time ([3]; 2 h) | Z isomer, changes over time ([3]; 3 h) | Z isomer, changes over time ([3]; 4 h) | Z isomer, changes over time ([3]; 5 h) | Z isomer, changes over time ([3]; 6 h) | Z isomer, changes over time ([3]; 7 h) | Z isomer, changes over time ([3]; 8 h) | Δ (Z to E change 0 h to 8 h) [3] | share of the Z configuration (PSS) [4] | SMILES
660 dm^3·mol^−1·cm^−1 | 440.8 nm | 850 dm^3·mol^−1·cm^−1 | 434.1 nm | 6.7 nm | poorly soluble |  |  |  |  |  |  |  |  |  |  |  | O=C(/C=C/c1ccc(Br)cc1)c1cccc(/N=N/c2ccc(F)cc2)c1 [Compound 17d]
796 dm^3·mol^−1·cm^−1 | 441.2 nm | 1016 dm^3·mol^−1·cm^−1 | 426.9 nm | 14.3 nm | poorly soluble |  |  |  |  |  |  |  |  |  |  |  | O=C(/C=C/c1ccc(Br)cc1)c1cccc(/N=N/c2ccc(F)cc2F)c1 [Compound 17h]
 |  |  |  |  |  | 74.84% | 73.32% | 72.17% | 70.9% | 69.59% | 68.98% | 68% | 67.46% | 66.19% | 8.65% | 74.84% | COc1ccc(/C=C/C(=O)c2cccc(/N=N/c3c(F)cccc3F)c2)cc1OC [Compound 17i]
 |  |  |  |  |  | 74.39% | 74.02% | 72.48% | 72.26% | 70.95% | 70.43% | 69.33% | 67.93% | 67.18% | 7.21% | 74.39% | COc1cc(/C=C/C(=O)c2cccc(/N=N/c3c(F)cccc3F)c2)cc(OC)c1OC [Compound 17k]
902 dm^3·mol^−1·cm^−1 | 448.6 nm | 1074 dm^3·mol^−1·cm^−1 | 417.9 nm | 30.7 nm |  | 75.44% | 74.04% | 72.7% | 71.56% | 70.77% | 69.92% | 68.63% | 67.93% | 67.78% | 7.66% | 75.44% | O=C(/C=C/c1ccc(Br)cc1)c1cccc(/N=N/c2c(F)cccc2F)c1 [Compound 17l]

Source: PMC12844124, “Synthesis and Study of Substituted Chalcones Combined with Fluoroazobenzenes—New Photoswitches for Application in Biological Systems” (Molecules, 2026)
